In ChEMBL document CHEMBL1201862, “PubChem BioAssay data set” (2004):
Activity calls are given as the source filed them. No rule for the calls is given here.

Target: T1, Exodeoxyribonuclease V (Escherichia coli (strain K12), UniProt P04993+P07648+P08394)
T1 sequence (P04993 whole entry): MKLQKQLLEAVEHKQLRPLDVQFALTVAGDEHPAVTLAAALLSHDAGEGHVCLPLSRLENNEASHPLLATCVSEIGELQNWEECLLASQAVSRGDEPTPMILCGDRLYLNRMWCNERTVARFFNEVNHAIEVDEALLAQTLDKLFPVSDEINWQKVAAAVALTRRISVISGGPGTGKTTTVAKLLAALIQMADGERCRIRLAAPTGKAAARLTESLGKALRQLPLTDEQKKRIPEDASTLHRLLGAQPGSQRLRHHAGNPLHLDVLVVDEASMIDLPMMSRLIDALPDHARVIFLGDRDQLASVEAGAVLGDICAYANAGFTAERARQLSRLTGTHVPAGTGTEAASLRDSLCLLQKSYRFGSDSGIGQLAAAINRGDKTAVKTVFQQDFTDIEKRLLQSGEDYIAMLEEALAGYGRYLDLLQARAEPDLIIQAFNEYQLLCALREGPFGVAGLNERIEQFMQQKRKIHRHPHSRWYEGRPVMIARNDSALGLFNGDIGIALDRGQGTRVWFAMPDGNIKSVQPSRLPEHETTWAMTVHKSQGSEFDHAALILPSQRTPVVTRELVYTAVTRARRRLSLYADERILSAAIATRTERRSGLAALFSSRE
T1 sequence (P07648 whole entry): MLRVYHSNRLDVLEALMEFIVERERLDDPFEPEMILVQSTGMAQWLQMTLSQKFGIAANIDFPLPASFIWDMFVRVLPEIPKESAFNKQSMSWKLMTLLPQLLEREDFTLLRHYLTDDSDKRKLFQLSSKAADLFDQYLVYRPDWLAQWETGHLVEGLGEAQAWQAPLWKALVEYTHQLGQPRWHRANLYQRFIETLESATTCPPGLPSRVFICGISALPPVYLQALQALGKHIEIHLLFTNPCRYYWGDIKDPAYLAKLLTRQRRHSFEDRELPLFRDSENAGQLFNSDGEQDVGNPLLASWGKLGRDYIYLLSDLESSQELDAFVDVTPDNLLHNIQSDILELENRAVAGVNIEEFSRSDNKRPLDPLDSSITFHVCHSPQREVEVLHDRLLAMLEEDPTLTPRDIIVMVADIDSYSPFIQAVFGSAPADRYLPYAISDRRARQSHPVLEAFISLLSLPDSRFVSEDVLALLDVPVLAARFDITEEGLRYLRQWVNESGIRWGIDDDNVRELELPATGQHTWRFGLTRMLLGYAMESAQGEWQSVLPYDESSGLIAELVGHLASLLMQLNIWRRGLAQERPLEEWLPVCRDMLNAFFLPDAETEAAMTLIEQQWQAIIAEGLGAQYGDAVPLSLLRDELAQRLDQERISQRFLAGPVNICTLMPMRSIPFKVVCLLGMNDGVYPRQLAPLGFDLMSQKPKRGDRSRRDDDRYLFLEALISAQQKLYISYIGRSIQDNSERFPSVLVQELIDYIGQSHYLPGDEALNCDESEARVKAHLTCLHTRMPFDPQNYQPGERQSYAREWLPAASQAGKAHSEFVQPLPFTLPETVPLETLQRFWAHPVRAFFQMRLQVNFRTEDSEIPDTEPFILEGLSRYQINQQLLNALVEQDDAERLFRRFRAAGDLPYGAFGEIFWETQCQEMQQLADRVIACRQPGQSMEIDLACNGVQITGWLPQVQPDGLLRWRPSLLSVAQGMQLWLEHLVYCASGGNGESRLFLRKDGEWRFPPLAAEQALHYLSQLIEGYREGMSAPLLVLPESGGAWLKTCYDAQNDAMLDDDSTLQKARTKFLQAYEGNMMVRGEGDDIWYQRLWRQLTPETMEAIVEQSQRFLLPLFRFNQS
T1 sequence (P08394 whole entry): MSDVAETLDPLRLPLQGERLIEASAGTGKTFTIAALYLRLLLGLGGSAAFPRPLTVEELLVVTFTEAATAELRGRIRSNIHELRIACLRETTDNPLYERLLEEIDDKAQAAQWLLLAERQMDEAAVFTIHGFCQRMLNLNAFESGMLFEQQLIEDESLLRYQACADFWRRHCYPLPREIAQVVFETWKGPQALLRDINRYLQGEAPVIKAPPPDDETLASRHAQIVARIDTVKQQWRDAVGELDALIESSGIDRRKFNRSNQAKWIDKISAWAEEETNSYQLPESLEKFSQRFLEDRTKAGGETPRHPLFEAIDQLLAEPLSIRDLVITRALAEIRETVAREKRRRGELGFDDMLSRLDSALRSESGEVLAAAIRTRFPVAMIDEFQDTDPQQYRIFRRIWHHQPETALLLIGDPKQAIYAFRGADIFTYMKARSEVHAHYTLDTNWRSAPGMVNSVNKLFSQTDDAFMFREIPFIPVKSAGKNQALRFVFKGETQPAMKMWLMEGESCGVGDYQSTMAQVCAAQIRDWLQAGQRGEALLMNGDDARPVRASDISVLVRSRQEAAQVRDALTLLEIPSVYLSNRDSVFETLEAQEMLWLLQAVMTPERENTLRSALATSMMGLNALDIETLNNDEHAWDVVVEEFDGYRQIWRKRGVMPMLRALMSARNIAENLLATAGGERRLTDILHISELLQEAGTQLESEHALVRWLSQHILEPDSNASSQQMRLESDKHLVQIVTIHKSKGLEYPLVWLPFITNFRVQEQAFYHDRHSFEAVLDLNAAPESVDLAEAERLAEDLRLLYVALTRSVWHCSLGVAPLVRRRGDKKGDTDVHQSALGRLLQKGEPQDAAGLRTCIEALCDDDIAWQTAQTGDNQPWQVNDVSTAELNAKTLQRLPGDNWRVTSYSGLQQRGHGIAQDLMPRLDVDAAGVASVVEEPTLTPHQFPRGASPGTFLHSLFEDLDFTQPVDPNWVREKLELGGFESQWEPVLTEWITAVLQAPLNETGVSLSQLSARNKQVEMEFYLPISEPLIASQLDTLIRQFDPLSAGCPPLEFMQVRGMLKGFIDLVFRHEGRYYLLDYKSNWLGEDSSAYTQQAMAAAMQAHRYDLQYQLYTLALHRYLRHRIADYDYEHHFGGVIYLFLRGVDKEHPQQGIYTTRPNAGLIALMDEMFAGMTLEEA
Experiment: RecBCD inhibition via phage-restricted bacterial growth – absorbance, V66 E. coli, mutant T4 phage, counter-screen for AddAB inhibitor project, dose response (AID 492957)
Assay type: functional, cell-based, Escherichia coli str. K-12 substr. MG1655

O=[N+]([O-])c1ccc(N/N=C/c2ccc[nH]2)cc1
IC50: > 119 µM (inactive)
